Measurements published in US4983582A, “Preventive and therapeutic method for hypertension” (Kao Corporation, priority 1987, dated 1991).
Entries after “also recorded” stand apart in the source; their conditions may differ.

Legend:
SHR-rat [1] = test: Example 2: systolic blood pressure in the SHR, tail artery, closed method, 15 weeks administration; type: in vivo; conditions: for Systolic blood pressure in the SHR: average, n = 10
Procedure: To each group comprising 10 male SHR at the age of 9 weeks was dosed average 30 ml/day of the following aqueous solutions for 15 weeks; an aqueous solution of glucose-1-phosphate calcium (1 g/100 ml) represented by the structural formula (a), an aqueous solution of calcium lactate (0.83 g/100 ml), and an aqueous solution of hydrochlorothiazide (0.093 g/100 ml), which is one of the thiazide diuretics, while to a control group was dosed distilled water.
Systolic blood pressure was measured in a closed method in the tail artery of the subject at each time of before administration, 5 weeks of administration, and 15 weeks of administration (the measuring apparatus employed was PS-200 of Rikenkaihatsu Co.).

SHR-rat [2] = test: Example 1: systolic blood pressure of SHR-rat at tail, 3 months oral administration; type: in vivo; conditions: 3 ml/day per orally, average, n = 10
Procedure: To each group comprising 10 male SHR of approx. 300 g of the body weight was per orally dosed 3 ml/day of the following aqueous solutions for 3 months;
an aqueous solution of glucose-1-phosphate calcium (2 g/100 ml) represented by the structural formula (a), and
an aqueous solution of glucose-1-phosphate calcium containing compounds of the general formulas (a) and (b) in the weight ratio of 9:1,
while to a control group was given distilled water.
The systolic blood pressure was measured at the tail of each subject, every one, two and three months of the administration period.

[3] = Japanese Patent Publication No. 46-7599 for dental caries; cited from earlier work
[4] = acute toxicity on peroral dosing to a mouse; conditions: in vivo, po, perorally, read-out: peroral dose at which it exhibits an acute toxicity
[5] = 5 weeks after, average 30 ml/day, glucose-1-phosphate calcium 1 g/100 ml, calcium lactate 0.83 g/100 ml, hydrochlorothiazide 0.093 g/100 ml, control 203
[6] = 15 weeks after, average 30 ml/day, glucose-1-phosphate calcium 1 g/100 ml, calcium lactate 0.83 g/100 ml, hydrochlorothiazide 0.093 g/100 ml, control 211
[7] = before administration, control 197

CC(O)C(=O)O (stereo not drawn) [Calcium lactate, calcium lactate]
Systolic blood pressure in the SHR (SHR-rat [1]; [5]): 190
Systolic blood pressure in the SHR (SHR-rat [1]; [6]): 204
Systolic blood pressure in the SHR (SHR-rat [1]; [7]): 198

O=P(O)(O)OC1O[C@H](CO)[C@@H](O)[C@H](O)[C@H]1O (stereo partly drawn) [Glucose-1-phosphate calcium (a), glucose-1-phosphate calcium]
Systolic blood pressure of SHR-rat at tail (SHR-rat [2]; 1 month, control 150): 148
Systolic blood pressure of SHR-rat at tail (SHR-rat [2]; 2 months, control 187): 153
Systolic blood pressure of SHR-rat at tail (SHR-rat [2]; 3 months, control 215): 155
Systolic blood pressure in the SHR (SHR-rat [1]; [5]): 175
Systolic blood pressure in the SHR (SHR-rat [1]; [6]): 185
Systolic blood pressure in the SHR (SHR-rat [1]; [7]): 199

NS(=O)(=O)c1cc2c(cc1Cl)NCNS2(=O)=O [Hydrochlorothiazide, hydrochlorothiazide]
Systolic blood pressure in the SHR (SHR-rat [1]; [5]): 175
Systolic blood pressure in the SHR (SHR-rat [1]; [6]): 188
Systolic blood pressure in the SHR (SHR-rat [1]; [7]): 200

O=P(O)(O)OC1O[C@H](CO)[C@@H](O)[C@H](O)[C@H]1O (stereo partly drawn) [glucose-1-phosphate calcium]
physiological effects already reported [3]: effect of inhibiting dental caries; also recorded: cartilage-calcification promotion effect; also recorded: fatigue-recuperation effect
LD50 [4]: ≥ 15000 mg/kg
reduction of the systolic blood pressure of SHR-rat compared with hydrochlorothiazide (SHR-rat [1]; SHR-rat, Table 2): substantially in the same extent as hydrochlorothiazide
